Data on 1 compound can be found in publication PMC10177262, “A Novel CD206 Targeting Peptide Inhibits Bleomycin-Induced Pulmonary Fibrosis in Mice” (Cells, 2023).

For the experiment, the system named is BLM-induced lung fibrosis in C57BL/6J mice. Nature of the experiment: Late BLM model, comparison and combination with Pirfenidone. It counts as in vivo, mouse. The conditions noted are these: RP-832c 10 mg/kg QD; Pirfenidone 30 mg/kg Q3D; monotherapy, 21 days; n = 6. As to the method: C57BL/6J mice were obtained from Envigo, Indianapolis, IN, USA. All animal studies were approved by the IACUC (Murigenics, Inc., Vallejo, CA, USA). After 3 days of acclimation, the mice were challenged with a single 2.5 U/kg body weight dose of bleomycin (BLM) intratracheally (IT), and a vehicle (normal saline) or RP-832c(QD) was administered subcutaneously for 21 days starting 3- and 14-days post-BLM-challenge. Body weights were measured daily, and lung weight was measured at the end of each study.
At the end of the study, the mice were sacrificed using CO2 followed by cervical dislocation (according to IACUC guidelines), and the lungs were collected and fixed in 10% formalin. After 48 h of fixation, the lungs were processed into tissue sections. […] All slides were scanned using a Leica Aperio SC2 scanner and blindly evaluated by two independent pathologists. A total of 10 representative fields of 20× IHC images per tissue section were individually analyzed for the total number of cells/area using a confocal microscope (Olympus, New York, NY, USA). All quantitative data were normalized to appropriate control images.
Pirfenidone and Nintedanib are the only two FDA-approved drugs for lung fibrosis; therefore, we tested any synergistic effects of RP-832c peptide with these drugs. […] Combination therapy was also evaluated (Figure 5A and Figure S5). […]

On to `Cc1ccc(=O)n(-c2ccccc2)c1` [Pirfenidone], for which the “CD206 expression in lung (IHC)” value was “decreased CD206 expression”.
